Experimental data reported in ChEMBL document CHEMBL1137122, “Solution phase parallel synthesis and evaluation of MAPK inhibitory activities of close structural analogues of a Ras pathway modulator” (Bioorg Med Chem Lett, 2004).

Key:
[1] = biological target: T1, Serine/threonine-protein kinase RAF and Dual specificity mitogen-activated protein kinase kinase 1 (Raf/MEK) (Homo sapiens, UniProt P04049+Q02750); test: Inhibitory activity in EGF-stimulated Elk1-luciferase reporter assay in HeLa cells at 20 uM; assay type: functional, cell-based
T1 sequence (P04049 whole entry, looked up): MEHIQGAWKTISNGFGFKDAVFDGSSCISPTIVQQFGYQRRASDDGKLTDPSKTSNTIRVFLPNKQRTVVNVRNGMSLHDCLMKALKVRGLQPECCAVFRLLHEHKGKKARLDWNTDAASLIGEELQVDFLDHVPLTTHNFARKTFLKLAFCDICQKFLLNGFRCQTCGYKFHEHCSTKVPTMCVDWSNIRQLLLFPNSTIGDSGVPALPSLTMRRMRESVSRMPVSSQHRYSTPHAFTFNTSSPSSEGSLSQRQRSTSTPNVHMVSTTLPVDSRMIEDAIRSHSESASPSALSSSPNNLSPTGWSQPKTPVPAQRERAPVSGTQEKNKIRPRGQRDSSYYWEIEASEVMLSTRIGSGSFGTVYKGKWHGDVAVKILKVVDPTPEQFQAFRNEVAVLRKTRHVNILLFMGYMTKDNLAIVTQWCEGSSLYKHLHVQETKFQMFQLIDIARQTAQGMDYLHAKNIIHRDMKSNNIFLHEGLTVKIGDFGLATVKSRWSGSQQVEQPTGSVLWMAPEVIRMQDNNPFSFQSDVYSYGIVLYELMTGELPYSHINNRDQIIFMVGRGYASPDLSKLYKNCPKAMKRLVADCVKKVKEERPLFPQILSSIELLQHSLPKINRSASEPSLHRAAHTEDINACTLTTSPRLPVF
T1 sequence (Q02750 whole entry, looked up): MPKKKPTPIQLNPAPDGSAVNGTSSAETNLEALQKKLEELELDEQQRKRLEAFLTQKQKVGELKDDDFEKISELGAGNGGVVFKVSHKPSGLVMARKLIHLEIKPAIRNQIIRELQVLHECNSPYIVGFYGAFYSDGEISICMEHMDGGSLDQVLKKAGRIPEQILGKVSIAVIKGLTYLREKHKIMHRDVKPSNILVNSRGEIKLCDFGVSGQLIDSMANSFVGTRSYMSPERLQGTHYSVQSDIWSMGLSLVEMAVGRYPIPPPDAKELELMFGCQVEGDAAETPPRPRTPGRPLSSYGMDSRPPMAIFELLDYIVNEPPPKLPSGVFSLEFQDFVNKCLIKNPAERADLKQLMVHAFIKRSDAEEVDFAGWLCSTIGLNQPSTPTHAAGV

HCT-116 [2] = test: Antiproliferative activity was evaluated using HCT116 cells in WST-1 assay; assay type: functional; settings: Homo sapiens
HCT-116 [3] = test: Ability of compound to inhibit anchorage independent colony formation (soft agar growth assay) in HCT116 cells; assay type: functional; settings: Homo sapiens
[4] = biological target: T1, Serine/threonine-protein kinase RAF and Dual specificity mitogen-activated protein kinase kinase 1 (Raf/MEK); test: Inhibition of EGF-stimulated Elk1-luciferase reporter assay in HeLa cells; assay type: functional, cell-based
[5] = biological target: T1, Serine/threonine-protein kinase RAF and Dual specificity mitogen-activated protein kinase kinase 1 (Raf/MEK); test: Inhibitory activity in EGF-stimulated Elk1-luciferase reporter assay in HeLa cells at 15 uM; assay type: functional, cell-based
[6] = biological target: T1, Serine/threonine-protein kinase RAF and Dual specificity mitogen-activated protein kinase kinase 1 (Raf/MEK); test: Inhibitory activity in EGF-stimulated Elk1-luciferase reporter assay in HeLa cells at 30 uM; assay type: functional, cell-based
[7] = biological target: T1, Serine/threonine-protein kinase RAF and Dual specificity mitogen-activated protein kinase kinase 1 (Raf/MEK); test: Inhibitory activity in EGF-stimulated Elk1-luciferase reporter assay in HeLa cells at 60 uM; assay type: functional, cell-based
HCT-116 [8] = test: Antiproliferative activity was evaluated using HCT116 cells in WST-1 assay at 60 uM; assay type: functional; settings: Homo sapiens
HCT-116 [9] = test: cells; settings: Homo sapiens
Description: Antiproliferative activity was evaluated using HCT116 cells in WST-1 assay at 15 uM

SMILES	GI50 (HCT-116 [2])	GI50 (HCT-116 [3])	IC50 [4]	further results
COc1cc(CN(CCc2ccccn2)C(=O)C(N)Cc2ccccc2)ccc1OCc1ccccc1 (centres undefined)	–	–	–	inhibition [1]: 14%
COc1ccc(CN(CCc2ccccn2)C(=O)c2ccccc2Cl)cc1OC	–	–	–	inhibition [1]: 24%
COc1cc(CN(CCc2cccc(O)n2)C(=O)CCCCc2ccccc2)ccc1OCc1ccccc1	22.6 µM	32.3 µM	12.3 µM	–
COc1cc(CN(CCc2ccccn2)C(=O)CCC(C)c2ccccc2)ccc1OCc1ccccc1 (centres undefined)	13.2 µM	23.5 µM	11.2 µM	–
COc1cc(CN(CCc2ccccn2)C(=O)COCc2ccccc2)ccc1OCc1ccccc1	–	–	–	inhibition [1]: 43%
COc1cc(CN(CCc2ccccn2)C(=O)CNCc2ccccc2)ccc1OCc1ccccc1	–	–	–	inhibition [1]: 6%
COc1cc(CN(CCC2CCCCN2)C(=O)CCCc2ccccc2)ccc1OCc1ccccc1 (centres undefined)	5.4 µM	3.5 µM	–	inhibition [5]: 0%; inhibition [6]: 100%
COc1cc(CN(CCc2ccccn2)C(=O)c2ccccc2Cl)ccc1OCc1ccccc1	24.7 µM	22.1 µM	20.6 µM	–
COc1cc(C(=O)N(CCc2ccccn2)Cc2ccccc2Cl)ccc1OCc1ccccc1	29 µM	18.8 µM	16.2 µM	–
O=C(c1ccccc1Cl)N(CCc1ccccn1)CC1CCN(CCc2ccccc2)CC1	–	–	–	inhibition [7]: 7%; inhibition at 60 µM (HCT-116 [8]): 32%
COc1cc(CN(Cc2ccccc2Cl)C(=O)Cc2ccccn2)ccc1OCc1ccccc1	–	–	25.3 µM	–
COc1ccc(CN(CCc2ccccn2)C(=O)c2ccccc2Cl)cc1OCc1ccccc1	–	–	–	inhibition [1]: 32%
N#CC(=C(/N)Sc1ccccc1N)/C(C#N)=C(\N)Sc1ccccc1N	–	19.4 µM	–	inhibition at 15 µM (HCT-116 [9]): 35%
COc1cc(CN(CCc2ccccn2)C(=O)C2CC2c2ccccc2)ccc1OCc1ccccc1 (trans isomer)	23.9 µM	25.9 µM	10.5 µM	–
CNC(=O)c1cc(Oc2ccc(NC(=O)Nc3ccc(Cl)c(C(F)(F)F)c3)cc2)ccn1 [SORAFENIB]	5.4 µM	6.6 µM	–	–
O=C(CCCCc1ccccc1)N(CCc1ccccn1)Cc1ccc(OCc2ccccc2)c(O)c1	31.6 µM	–	19.4 µM	–
O=C(CCCCc1ccccc1)N(CCc1ccccn1)Cc1ccc(OCc2ccccc2)c(OCCO)c1	18.6 µM	14.4 µM	14.2 µM	–
COc1cc(CN(CCc2ccccn2)C(=O)CCCCc2ccccc2)ccc1OCc1ccccc1	16.2 µM	20.6 µM	9 µM	–
